According to US9844536B2, “3-(1H-imidazo[4,5-C]pyridin-2-yl)-1H-pyrazolo[3,4-C]pyridine and therapeutic uses thereof” (Samumed, LLC, priority 2014, dated 2017):

Test system: Wnt pathway (Sp5-Luc reporter, SW480 cells)
Assay: Sp5-Luc reporter gene screening assay for Wnt activity in SW480 colon carcinoma cells
Assay type: cell-based
Conditions: Homo sapiens
Description: The screening assay for Wnt activity is described as follows. Reporter cell lines can be generated by stably transducing cancer cell lines (e.g., colon cancer) or primary cells (e.g., IEC-6 intestinal cells) with a lentiviral construct that includes a Wnt-responsive promoter driving expression of the firefly luciferase gene.
SW480 colon carcinoma cells were transduced with a lentiviral vector expressing luciferase with a human Sp5 promoter consisting of a sequence of eight TCF/LEF binding sites. SW480 cells stably expressing the Sp5-Luc reporter gene and a hygromycin resistance gene were selected by treatment with 150 μg/ml of hygromycin for 7 days. These stably transduced SW480 cells were expanded in cell culture and used for all further screening activities. For Sp5-Luc reporter gene assays, the cells were plated at 10,000 cells/well in 96-well plates with growth medium containing 10% fetal calf serum and incubated overnight at 37° C. and 5% CO2. Each compound was dissolved in DMSO as a 10 mM stock in standard j-vials and used to prepare compound source plates in dose-response format with 3-fold serial dilutions and a 10 mM top concentration. Compound transfer from serially diluted source plates to assay plates containing the cells was accomplished using a pintool (Multimek 96, Beckman equipped with V&P Scientific FP1S50H pins) based liquid handling protocol. This protocol used a slotted pin to transfer 50 nl of compound from a source plate well to an assay plate well containing 50 μl of cells in growth medium. […] Control wells received 50 nl of DMSO treatment for normalization and calculating IC50 values. The treated cells were incubated at 37° C. and 5% CO2 for an additional forty-two hours. Following incubation, the growth medium was removed and 50 μl of BrightGlo luminescence reagent (Promega) was added to each well of the 96-well assay plates. The plates were placed on an orbital shaker for 5 min and then luminescence was quantified on the Victor3 (Perkin Elmer) plate reader. Readings were normalized to DMSO only treated cells, and normalized activities were utilized for IC50 calculations using the dose-response log (inhibitor) vs. response-variable slope (four parameters) nonlinear regression feature available in GraphPad Prism 5.0 or 6.0.

IC50 [nM] | SMILES
34.1 | CCC(=O)Nc1cncc(-c2cc3c(-c4nc5c(-c6cccc(F)c6)nccc5[nH]4)n[nH]c3cn2)c1 [Compound 1, N-(5-(3-(4-(3-Fluorophenyl)-1H-imidazo[4,5-c]pyridin-2-yl)-1H-pyrazolo[3,4-c]pyridin-5-yl)pyridin-3-yl)propionamide]
130 | CCCC(=O)Nc1cncc(-c2cc3c(-c4nc5c(-c6ccc(F)cc6)nccc5[nH]4)n[nH]c3cn2)c1 [Compound 43, N-(5-(3-(4-(4-Fluorophenyl)-1H-imidazo[4,5-c]pyridin-2-yl)-1H-pyrazolo[3,4-c]pyridin-5-yl)pyridin-3-yl)butyramide]
47.6 | CC(C)CC(=O)Nc1cncc(-c2cc3c(-c4nc5c(-c6ccccc6F)nccc5[nH]4)n[nH]c3cn2)c1 [Compound 54, N-(5-(3-(4-(2-Fluorophenyl)-1H-imidazo[4,5-c]pyridin-2-yl)-1H-pyrazolo[3,4-c]pyridin-5-yl)pyridin-3-yl)-3-methylbutanamide]
920 | CC(C)(C)CC(=O)Nc1cncc(-c2cc3c(-c4nc5c(-c6ccccc6F)nccc5[nH]4)n[nH]c3cn2)c1 [Compound 68, N-(5-(3-(4-(2-Fluorophenyl)-1H-imidazo[4,5-c]pyridin-2-yl)-1H-pyrazolo[3,4-c]pyridin-5-yl)pyridin-3-yl)-3,3-dimethylbutanamide]
33.4 | CCCC(=O)Nc1cncc(-c2cc3c(-c4nc5c(-c6ccccc6F)nccc5[nH]4)n[nH]c3cn2)c1 [Compound 69, N-(5-(3-(4-(2-Fluorophenyl)-1H-imidazo[4,5-c]pyridin-2-yl)-1H-pyrazolo[3,4-c]pyridin-5-yl)pyridin-3-yl)butyramide]
> 10000 | c1cncc(-c2nccc3[nH]c(-c4n[nH]c5cnc(-c6cncc(CN7CCCCC7)c6)cc45)nc23)c1 [Compound 93, 5-(5-(Piperidin-1-ylmethyl)pyridin-3-yl)-3-(4-(pyridin-3-yl)-1H-imidazo[4,5-c]pyridin-2-yl)-1H-pyrazolo[3,4-c]pyridine]
51.3 | c1ccc(CNCc2cncc(-c3cc4c(-c5nc6c(-c7cccnc7)nccc6[nH]5)n[nH]c4cn3)c2)cc1 [Compound 101, N-Benzyl-1-(5-(3-(4-(pyridin-3-yl)-1H-imidazo[4,5-c]pyridin-2-yl)-1H-pyrazolo[3,4-c]pyridin-5-yl)pyridin-3-yl)methanamine]
199 | CCCCC(=O)Nc1cncc(-c2cc3c(-c4nc5c(-c6ccccn6)nccc5[nH]4)n[nH]c3cn2)c1 [Compound 148, N-(5-(3-(4-(Pyridin-2-yl)-1H-imidazo[4,5-c]pyridin-2-yl)-1H-pyrazolo[3,4-c]pyridin-5-yl)pyridin-3-yl)pentanamide]
140 | CC(C)(C)C(=O)Nc1cncc(-c2cc3c(-c4nc5c(N6CCCCC6)nccc5[nH]4)n[nH]c3cn2)c1 [Compound 164, N-(5-(3-(4-(Piperidin-1-yl)-1H-imidazo[4,5-c]pyridin-2-yl)-1H-pyrazolo[3,4-c]pyridin-5-yl)pyridin-3-yl)pivalamide]
41 | Cc1cn(-c2nccc3[nH]c(-c4n[nH]c5cnc(-c6cncc(NC(=O)CC(C)C)c6)cc45)nc23)cn1 [Compound 184]
118 | CN1CCN(c2nccc3[nH]c(-c4n[nH]c5cnc(-c6cncc(N)c6)cc45)nc23)CC1 [Compound 211, 5-(3-(4-(4-Methylpiperazin-1-yl)-1H-imidazo[4,5-c]pyridin-2-yl)-1H-pyrazolo[3,4-c]pyridin-5-yl)pyridin-3-amine]
> 10000 | CC(C)(C)CC(=O)Nc1cncc(-c2cc3c(-c4nc5cnccc5[nH]4)n[nH]c3cn2)c1 [Compound 250, N-(5-(3-(1H-Imidazo[4,5-c]pyridin-2-yl)-1H-pyrazolo[3,4-c]pyridin-5-yl)pyridin-3-yl)-3,3-dimethylbutanamide]
38.7 | CC(C)(C)C(=O)Nc1cncc(-c2cc3c(-c4nc5c(-c6ccoc6)nccc5[nH]4)n[nH]c3cn2)c1 [Compound 294, N-(5-(3-(4-(Furan-3-yl)-1H-imidazo[4,5-c]pyridin-2-yl)-1H-pyrazolo[3,4-c]pyridin-5-yl)pyridin-3-yl)pivalamide]
28.6 | CCC(=O)Nc1cncc(-c2cc3c(-c4nc5c(-c6cccs6)nccc5[nH]4)n[nH]c3cn2)c1 [Compound 313, N-(5-(3-(4-(Thiophen-2-yl)-1H-imidazo[4,5-c]pyridin-2-yl)-1H-pyrazolo[3,4-c]pyridin-5-yl)pyridin-3-yl)propionamide]
359 | CC(C)CC(=O)Nc1cncc(-c2cc3c(-c4nc5c(-c6cccs6)nccc5[nH]4)n[nH]c3cn2)c1 [Compound 314, 3-Methyl-N-(5-(3-(4-(thiophen-2-yl)-1H-imidazo[4,5-c]pyridin-2-yl)-1H-pyrazolo[3,4-c]pyridin-5-yl)pyridin-3-yl)butanamide]
37.8 | O=C(Nc1cncc(-c2cc3c(-c4nc5c(-c6cccs6)nccc5[nH]4)n[nH]c3cn2)c1)C1CCC1 [Compound 332, N-(5-(3-(4-(Thiophen-2-yl)-1H-imidazo[4,5-c]pyridin-2-yl)-1H-pyrazolo[3,4-c]pyridin-5-yl)pyridin-3-yl)cyclobutanecarboxamide]
255 | Fc1cccc(-c2nccc3[nH]c(-c4n[nH]c5cnc(-c6cncc(OC7CCCCC7)c6)cc45)nc23)c1 [Compound 943, 5-(5-(Cyclohexyloxy)pyridin-3-yl)-3-(4-(3-fluorophenyl)-1H-imidazo[4,5-c]pyridin-2-yl)-1H-pyrazolo[3,4-c]pyridine]
> 10000 | Fc1cccc(-c2nccc3[nH]c(-c4n[nH]c5cnc(-c6cncc(OC7CCNCC7)c6)cc45)nc23)c1 [Compound 944, 3-(4-(3-Fluorophenyl)-1H-imidazo[4,5-c]pyridin-2-yl)-5-(5-(piperidin-4-yloxy)pyridin-3-yl)-1H-pyrazolo[3,4-c]pyridine]
> 10000 | Fc1cccc(-c2nccc3[nH]c(-c4n[nH]c5cnc(-c6cncc(OCCN7CCCC7)c6)cc45)nc23)c1 [Compound 946, 3-(4-(3-Fluorophenyl)-1H-imidazo[4,5-c]pyridin-2-yl)-5-(5-(2-(pyrrolidin-1-yl)ethoxy)pyridin-3-yl)-1H-pyrazolo[3,4-c]pyridine]
2010 | Fc1cccc(-c2nccc3[nH]c(-c4n[nH]c5cnc(-c6cncc(OCc7ccccc7)c6)cc45)nc23)c1 [Compound 950, 5-(5-(Benzyloxy)pyridin-3-yl)-3-(4-(3-fluorophenyl)-1H-imidazo[4,5-c]pyridin-2-yl)-1H-pyrazolo[3,4-c]pyridine]
1040 | O=C(CC1CCCCC1)Nc1cncc(-c2cc3c(-c4nc5c(-c6cccc(F)c6)nccc5[nH]4)n[nH]c3cn2)c1 [Compound 951, 2-Cyclohexyl-N-(5-(3-(4-(3-fluorophenyl)-1H-imidazo[4,5-c]pyridin-2-yl)-1H-pyrazolo[3,4-c]pyridin-5-yl)pyridin-3-yl)acetamide]
32 | Fc1cccc(-c2nccc3[nH]c(-c4n[nH]c5cnc(-c6ccncc6)cc45)nc23)c1 [Compound 952, 3-(4-(3-Fluorophenyl)-1H-imidazo[4,5-c]pyridin-2-yl)-5-(pyridin-4-yl)-1H-pyrazolo[3,4-c]pyridine]
2060 | CC(C)CC(=O)Nc1cncc(-c2cc3c(-c4nc5c(-c6cc(F)cc(OCCN(C)C)c6)nccc5[nH]4)n[nH]c3cn2)c1 [Compound 1262, N-(5-(3-(4-(3-(2-(Dimethylamino)ethoxy)-5-fluorophenyl)-1H-imidazo[4,5-c]pyridin-2-yl)-1H-pyrazolo[3,4-c]pyridin-5-yl)pyridin-3-yl)-3-methylbutanamide]
4220 | CC(C)CC(=O)Nc1cncc(-c2cc3c(-c4nc5c(-c6cc(F)cc(OCCN7CCCC7)c6)nccc5[nH]4)n[nH]c3cn2)c1 [Compound 1306, N-(5-(3-(4-(3-Fluoro-5-(2-(pyrrolidin-1-yl)ethoxy)phenyl)-1H-imidazo[4,5-c]pyridin-2-yl)-1H-pyrazolo[3,4-c]pyridin-5-yl)pyridin-3-yl)-3-methylbutanamide]
